Data set [1] has as its system thymidine-kinase deficient Oka VZV strain in HEL cells. Put plainly: Viral plaque formation reduction in HEL cells inoculated with VZV Oka strain. The following applies: for antiviral activity (in words): in vitro. The data set is classed as cell-based, Varicella Zoster virus.
Data set [2] in a line: Pilot oral pharmacokinetic study in female mice, plasma Compound 1 by HPLC with fluorescence detection. Format: in vivo. The following applies: single oral gavage 31.25 mg/kg vs Compound 1 25 mg/kg.

Several values for one entry are separate records, joined by “and”; a condition that tells them apart may be missing. Equal values may be shown once. Entries after “also recorded” stand apart in the source; their conditions may differ.

By EC50 is commonly meant the concentration needed to bring the measured effect to its halfway point. In the case of `CCCCCc1ccc(-c2cc3cn(C4CC(O)C(COC(=O)C(N)C(C)C)O4)c(=O)nc3o2)cc1` (stereo not shown) [Compound 5], the EC50 in data set [1] (Human alphaherpesvirus 3, HEL, read-out: EC50 in VZV OKA) is 16 nM and 0.008 µg/mL. Further, the “antiviral activity (in words)” value in data set [1] is recorded as “active; also recorded: comparable in vitro antiviral activity to Compound 1”. Moreover, the “plasma concentrations of Compound 1 compared to mice receiving Compound 1 (in words)” value in data set [2] is recorded as “much higher”.
With `CCCCCc1ccc(-c2cc3cn(C4CC(O)C(COC(=O)C(N)C(C)C)O4)c(=O)nc3o2)cc1.Cl` (stereo not shown) [Compound 6], the “antiviral activity (in words)” value in data set [1] was “active”.

For the origin of these results see US8859512B2, “Anti-viral pyrimidine nucleoside derivatives” (University College Cardiff Consultants Limited, priority 2006, dated 2014).
